According to article PMC12030706, “Novel ^177Lu-Labeled [Thz^14]Bombesin(6–14) Derivatives with Low Pancreas Accumulation for Targeting Gastrin-Releasing Peptide Receptor-Expressing Cancer” (Pharmaceuticals, 2025):

Assay: Ex vivo biodistribution in PC-3 tumor-bearing mice
Conditions: mouse; for tissue to tissue ratio at 1 h / tissue to tissue ratio at 4 h / tissue to tissue ratio at 24 h / tissue to tissue ratio at 72 h / tissue to tissue ratio at 120 h: male, NOD.Cg-Rag1^tm1Mom Il2rg^tm1Wjl/SzJ (NRG), total radioactivity; for tissue to tissue ratio at 4 h / tissue uptake at 4 h: 4 h post-injection; for tissue to tissue ratio at 24 h / tissue uptake at 24 h: 24 h post-injection; for tissue to tissue ratio at 72 h / tissue uptake at 72 h: 72 h post-injection; for tissue to tissue ratio at 120 h / tissue uptake at 120 h: 120 h post-injection
Method: SPECT/CT imaging experiments were performed using an MILabs (Houten, The Netherlands) U-SPECT-II/CT scanner with a custom-made ultra-high-sensitivity big mouse collimator (2 mm pinhole size) following previously reported procedures. […] Male NOD.Cg-Rag1^tm1Mom Il2rg^tm1Wjl/SzJ (NRG) mice were used in these experiments because of their immunodeficient characteristics and excellent radiation tolerance. Mice were anaesthetized and subcutaneously implanted with 5 × 10^6 PC-3 prostate cancer cells (100 µL; 1:1 PBS/Matrigel) behind the left shoulder. SPECT/CT imaging and biodistribution studies were performed once the tumors reached a diameter of 5–8 mm, typically after approximately 4 weeks of growth.
For ex vivo biodistribution studies, the mice were injected with ~2–6 MBq of the radioligand. […] Blocking study was conducted at 1 h post-injection via co-injection of the radioligand with 100 μg of [D-Phe^6,Leu-NHEt^13,des-Met^14]Bombesin(6–14). Organs/tissues of interested were collected, weighed, and measured using an automatic gamma counter.

[1] = tumor/blood, Tumor/blood uptake ratio
[2] = tumor/kidney, Tumor/kidney uptake ratio
[3] = tumor/muscle, Tumor/muscle uptake ratio
[4] = tumor/pancreas, Tumor/pancreas uptake ratio
[5] = PC-3 tumor, Uptake in PC-3 tumor
[6] = adrenal glands, Uptake in adrenal glands
[7] = large intestine, Uptake in large intestine

tissue to tissue ratio at 1 h (tumor/blood, Tumor/blood uptake ratio, 1 h blocked (co-injected with 100 µg [D-Phe6,Leu-NHEt13,des-Met14]Bombesin(6-14))): 5.32 ± 0.87
tissue to tissue ratio at 1 h (tumor/blood, Tumor/blood uptake ratio, 1 h post-injection): 15.9 ± 1.55
tissue to tissue ratio at 4 h [1]: 234 ± 53.9
tissue to tissue ratio at 24 h [1]: 1220 ± 229
tissue to tissue ratio at 72 h [1]: 1330 ± 177
tissue to tissue ratio at 120 h [1]: 1310 ± 412
tissue to tissue ratio at 1 h (tumor/kidney, Tumor/kidney uptake ratio, 1 h blocked (co-injected with 100 µg [D-Phe6,Leu-NHEt13,des-Met14]Bombesin(6-14))): 0.85 ± 0.1
tissue to tissue ratio at 1 h (tumor/kidney, Tumor/kidney uptake ratio, 1 h post-injection): 2.96 ± 0.43
tissue to tissue ratio at 4 h [2]: 3.27 ± 0.89
tissue to tissue ratio at 24 h [2]: 4.86 ± 0.64
tissue to tissue ratio at 72 h [2]: 8.92 ± 1.62
tissue to tissue ratio at 120 h [2]: 11.3 ± 1.27
tissue to tissue ratio at 1 h (tumor/muscle, Tumor/muscle uptake ratio, 1 h blocked (co-injected with 100 µg [D-Phe6,Leu-NHEt13,des-Met14]Bombesin(6-14))): 21.5 ± 3.27
tissue to tissue ratio at 1 h (tumor/muscle, Tumor/muscle uptake ratio, 1 h post-injection): 76.2 ± 10.1
tissue to tissue ratio at 4 h [3]: 392 ± 101
tissue to tissue ratio at 24 h [3]: 651 ± 95
tissue to tissue ratio at 72 h [3]: 647 ± 311
tissue to tissue ratio at 120 h [3]: 776 ± 314
tissue to tissue ratio at 1 h (tumor/pancreas, Tumor/pancreas uptake ratio, 1 h blocked (co-injected with 100 µg [D-Phe6,Leu-NHEt13,des-Met14]Bombesin(6-14))): 1.17 ± 0.31
tissue to tissue ratio at 1 h (tumor/pancreas, Tumor/pancreas uptake ratio, 1 h post-injection): 0.99 ± 0.11
tissue to tissue ratio at 4 h [4]: 1.87 ± 0.37
tissue to tissue ratio at 24 h [4]: 2.22 ± 0.25
tissue to tissue ratio at 72 h [4]: 4.58 ± 0.68
tissue to tissue ratio at 120 h [4]: 6.6 ± 1.14
tissue uptake at 1 h (PC-3 tumor, 100 ug, Uptake in PC-3 tumor, 1 h blocked (co-injected with 100 µg [D-Phe6,Leu-NHEt13,des-Met14]Bombesin(6-14))): 2.99 ± 0.42 %ID/g
tissue uptake at 1 h (PC-3 tumor, Uptake in PC-3 tumor, 1 h post-injection): 11 ± 1.03 %ID/g
tissue uptake at 4 h [5]: 10.1 ± 1.4 %ID/g
tissue uptake at 24 h [5]: 6.9 ± 1.34 %ID/g
tissue uptake at 72 h [5]: 4.72 ± 1.42 %ID/g
tissue uptake at 120 h [5]: 2.23 ± 0.33 %ID/g
tissue uptake at 1 h (adrenal glands, 100 ug, Uptake in adrenal glands, 1 h blocked (co-injected with 100 µg [D-Phe6,Leu-NHEt13,des-Met14]Bombesin(6-14))): 0.54 ± 0.24 %ID/g
tissue uptake at 24 h [6]: 0.98 ± 0.18 %ID/g
tissue uptake at 120 h [6]: 0.25 ± 0.05 %ID/g
tissue uptake at 1 h (blood, 100 ug, Uptake in blood, 1 h blocked (co-injected with 100 µg [D-Phe6,Leu-NHEt13,des-Met14]Bombesin(6-14))): 0.58 ± 0.16 %ID/g
tissue uptake at 4 h (blood, Uptake in blood): 0.04 ± 0.01 %ID/g
tissue uptake at 24 h (blood, Uptake in blood): 0.01 %ID/g
tissue uptake at 1 h (bone, 100 ug, Uptake in bone, 1 h blocked (co-injected with 100 µg [D-Phe6,Leu-NHEt13,des-Met14]Bombesin(6-14))): 0.08 ± 0.02 %ID/g
tissue uptake at 4 h (bone, Uptake in bone): 0.05 ± 0.03 %ID/g
tissue uptake at 24 h (bone, Uptake in bone): 0.02 ± 0.01 %ID/g
tissue uptake at 72 h (bone, Uptake in bone): 0.02 ± 0.01 %ID/g
tissue uptake at 120 h (bone, Uptake in bone): 0.01 %ID/g
tissue uptake at 1 h (brain, 100 ug, Uptake in brain, 1 h blocked (co-injected with 100 µg [D-Phe6,Leu-NHEt13,des-Met14]Bombesin(6-14))): 0.02 %ID/g
tissue uptake at 1 h (fat, 100 ug, Uptake in fat, 1 h blocked (co-injected with 100 µg [D-Phe6,Leu-NHEt13,des-Met14]Bombesin(6-14))): 0.07 ± 0.02 %ID/g
tissue uptake at 1 h (fat, Uptake in fat, 1 h post-injection): 0.07 ± 0.02 %ID/g
tissue uptake at 4 h (fat, Uptake in fat): 0.01 %ID/g
tissue uptake at 24 h (fat, Uptake in fat): 0.01 %ID/g
tissue uptake at 1 h (heart, 100 ug, Uptake in heart, 1 h blocked (co-injected with 100 µg [D-Phe6,Leu-NHEt13,des-Met14]Bombesin(6-14))): 0.2 ± 0.06 %ID/g
tissue uptake at 1 h (heart, Uptake in heart, 1 h post-injection): 0.22 ± 0.01 %ID/g
tissue uptake at 72 h (heart, Uptake in heart): 0.02 %ID/g
tissue uptake at 120 h (heart, Uptake in heart): 0.01 %ID/g
tissue uptake at 1 h (kidneys, 100 ug, Uptake in kidneys, 1 h blocked (co-injected with 100 µg [D-Phe6,Leu-NHEt13,des-Met14]Bombesin(6-14))): 3.56 ± 0.77 %ID/g
tissue uptake at 1 h (kidneys, Uptake in kidneys, 1 h post-injection): 3.77 ± 0.58 %ID/g
tissue uptake at 4 h (kidneys, Uptake in kidneys): 2.67 ± 0.49 %ID/g
tissue uptake at 24 h (kidneys, Uptake in kidneys): 1.46 ± 0.42 %ID/g
tissue uptake at 72 h (kidneys, Uptake in kidneys): < 1 %ID/g
tissue uptake at 120 h (kidneys, Uptake in kidneys): 0.2 ± 0.02 %ID/g
tissue uptake at 1 h (large intestine, Uptake in large intestine, 1 h post-injection): 1 ± 0.15 %ID/g
tissue uptake at 4 h [7]: 1.15 ± 0.38 %ID/g
tissue uptake at 24 h [7]: 0.44 ± 0.11 %ID/g
tissue uptake at 1 h (liver, 100 ug, Uptake in liver, 1 h blocked (co-injected with 100 µg [D-Phe6,Leu-NHEt13,des-Met14]Bombesin(6-14))): 0.26 ± 0.05 %ID/g
tissue uptake at 24 h (liver, Uptake in liver): 0.13 ± 0.04 %ID/g
tissue uptake at 72 h (liver, Uptake in liver): 0.07 ± 0.01 %ID/g
Structure (SMILES): CC(C)C[C@H](NC(=O)[C@H](Cc1cnc[nH]1)N(C)C(=O)CNC(=O)[C@@H](NC(=O)[C@H](C)NC(=O)[C@H](Cc1c[nH]c2ccccc12)NC(=O)[C@H](CCC(N)=O)NC(=O)[C@@H](Cc1ccccc1)NC(=O)CN1CCC(NC(=O)CN2CCN(CC(=O)O)CCN(CC(=O)O)CCN(CC(=O)O)CC2)CC1)C(C)(C)C)C(=O)N1CSC[C@H]1C(N)=O [[^177Lu]Lu-LW01110, metal not drawn]
